{"source": "patent US12685733B2", "about": "“Indole molecules and use thereof in the inhibition of DNA polymerases” (BioVentures, LLC, priority 2019, dated 2026)", "origin": "cited, not measured here", "target": "T1, recombinant hpol κ (Homo sapiens, UniProt Q9UBT6)", "T1 sequence (Q9UBT6 1-870)": "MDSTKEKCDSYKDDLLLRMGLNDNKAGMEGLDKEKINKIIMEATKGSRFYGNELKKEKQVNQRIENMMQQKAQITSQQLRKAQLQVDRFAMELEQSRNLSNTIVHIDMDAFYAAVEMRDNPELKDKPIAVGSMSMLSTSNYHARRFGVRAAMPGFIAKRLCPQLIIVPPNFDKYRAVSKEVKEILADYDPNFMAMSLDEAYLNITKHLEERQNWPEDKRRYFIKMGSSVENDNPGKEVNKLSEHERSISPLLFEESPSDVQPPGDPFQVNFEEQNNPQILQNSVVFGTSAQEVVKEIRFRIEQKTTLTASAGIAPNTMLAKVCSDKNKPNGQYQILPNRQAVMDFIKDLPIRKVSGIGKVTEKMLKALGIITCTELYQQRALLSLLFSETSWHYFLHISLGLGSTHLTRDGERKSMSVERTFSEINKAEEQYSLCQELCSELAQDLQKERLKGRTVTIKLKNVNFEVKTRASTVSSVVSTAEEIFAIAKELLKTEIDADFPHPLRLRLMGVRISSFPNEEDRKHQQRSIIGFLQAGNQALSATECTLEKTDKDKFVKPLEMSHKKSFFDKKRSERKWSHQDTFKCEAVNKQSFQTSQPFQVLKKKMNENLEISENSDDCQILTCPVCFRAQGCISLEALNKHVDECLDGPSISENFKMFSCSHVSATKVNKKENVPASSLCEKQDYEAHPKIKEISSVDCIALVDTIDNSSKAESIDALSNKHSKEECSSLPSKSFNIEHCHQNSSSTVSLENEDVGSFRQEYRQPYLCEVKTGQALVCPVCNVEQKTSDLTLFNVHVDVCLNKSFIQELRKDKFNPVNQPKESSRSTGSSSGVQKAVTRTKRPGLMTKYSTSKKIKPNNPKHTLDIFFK", "details": "earlier screen; cited from earlier work"}
{"molecule": "CCOc1nc2cccc(C(=O)OC(C)OC(=O)OC3CCCCC3)c2n1Cc1ccc(-c2ccccc2-c2nn[nH]n2)cc1", "note": "(stereo not shown) [candesartan, candesartan cilexetil]", "values": [{"measurement": "IC50 for inhibition of recombinant hpol κ", "value": "tens of micromolar"}]}
